What was measured:
Hepatotoxicity [1] = system: Hepatotoxicity;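 for HepSE Combined Scores: combined hepatic side effect score as listed in the training data of the Drug Induced Liver Injury Prediction System (DILIps)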;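 for HepSE cirrhosis: cirrhosis hepatic side effect score taken from the DILIps (drug-induced liver injury prediction) training set; call rule not given here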;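 for HepSE elevated liver function tests: hepatic side effect score for raised liver function tests, as recorded in the DILIps training set used for predicting drug-induced liver injury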; for HepSE hepatic failure: call rule not given here;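 for HepSE hepatic necrosis: score of hepatic side effects for hepatic necrosis, drawn from the training data of DILIps, a prediction system for drug-induced liver injury; call rule not given here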;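 for HepSE liver fatty: hepatic side effect score for fatty liver, taken from the DILIps training set for predicting drug-induced liver injury; call rule not given here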;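 for HepSE liver function tests abnormal: hepatic side effect score taken from the DILIps (drug-induced liver injury prediction system) training data, here covering abnormal liver function test findings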
Hepatotoxicity [2] = system: Hepatotoxicity; remark: listed apart in the source;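 for HepSE cirrhosis: cirrhosis hepatic side effect score taken from the DILIps (drug-induced liver injury prediction) training set; call rule not given here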;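 for HepSE elevated liver function tests: hepatic side effect score for raised liver function tests, as recorded in the DILIps training set used for predicting drug-induced liver injury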; for HepSE hepatic failure: call rule not given here;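 for HepSE hepatic necrosis: score of hepatic side effects for hepatic necrosis, drawn from the training data of DILIps, a prediction system for drug-induced liver injury; call rule not given here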;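 for HepSE liver fatty: hepatic side effect score for fatty liver, taken from the DILIps training set for predicting drug-induced liver injury; call rule not given here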;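 for HepSE liver function tests abnormal: hepatic side effect score taken from the DILIps (drug-induced liver injury prediction system) training data, here covering abnormal liver function test findings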
Hepatotoxicity [3] = system: Hepatotoxicity; remark: listed apart in the source;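 for HepSE cirrhosis: cirrhosis hepatic side effect score taken from the DILIps (drug-induced liver injury prediction) training set; call rule not given here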;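 for HepSE elevated liver function tests: hepatic side effect score for raised liver function tests, as recorded in the DILIps training set used for predicting drug-induced liver injury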; for HepSE hepatic failure: call rule not given here;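 for HepSE hepatic necrosis: score of hepatic side effects for hepatic necrosis, drawn from the training data of DILIps, a prediction system for drug-induced liver injury; call rule not given here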;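 for HepSE liver fatty: hepatic side effect score for fatty liver, taken from the DILIps training set for predicting drug-induced liver injury; call rule not given here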;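 for HepSE liver function tests abnormal: hepatic side effect score taken from the DILIps (drug-induced liver injury prediction system) training data, here covering abnormal liver function test findings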
Hepatotoxicity [4] = system: Hepatotoxicity; remark: listed apart in the source;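 for HepSE cirrhosis: cirrhosis hepatic side effect score taken from the DILIps (drug-induced liver injury prediction) training set; call rule not given here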;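 for HepSE elevated liver function tests: hepatic side effect score for raised liver function tests, as recorded in the DILIps training set used for predicting drug-induced liver injury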; for HepSE hepatic failure: call rule not given here;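 for HepSE hepatic necrosis: score of hepatic side effects for hepatic necrosis, drawn from the training data of DILIps, a prediction system for drug-induced liver injury; call rule not given here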;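 for HepSE liver fatty: hepatic side effect score for fatty liver, taken from the DILIps training set for predicting drug-induced liver injury; call rule not given here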;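 for HepSE liver function tests abnormal: hepatic side effect score taken from the DILIps (drug-induced liver injury prediction system) training data, here covering abnormal liver function test findings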
Hepatotoxicity [5] = system: Hepatotoxicity; remark: listed apart in the source; for HepSE hepatic failure: call rule not given here
Hepatotoxicity [6] = system: Hepatotoxicity; remark: listed apart in the source; for HepSE hepatic failure: call rule not given here
Hepatotoxicity [7] = system: Hepatotoxicity; remark: listed apart in the source
Hepatotoxicity [8] = system: Hepatotoxicity; remark: listed apart in the source
Hepatotoxicity [9] = system: Hepatotoxicity; remark: listed apart in the source
Hepatotoxicity [10] = system: Hepatotoxicity; remark: listed apart in the source
Hepatotoxicity [11] = system: Hepatotoxicity; remark: listed apart in the source
Hepatotoxicity [12] = system: Hepatotoxicity; remark: listed apart in the source
Hepatotoxicity [13] = system: Hepatotoxicity; remark: listed apart in the source
Hepatotoxicity [14] = system: Hepatotoxicity; remark: listed apart in the source

| SMILES | HepSE_liver fatty (Hepatotoxicity [1]) | HepSE_hepatic necrosis (Hepatotoxicity [2]) | HepSE_cirrhosis (Hepatotoxicity [3]) | HepSE_elevated liver function tests (Hepatotoxicity [4]) | HepSE_liver function tests abnormal (Hepatotoxicity [5]) | HepSE_hepatic failure (Hepatotoxicity [6]) | HepSE_Combined Scores (Hepatotoxicity [7]) | HepSE_liver disease (Hepatotoxicity [8]) | HepSE_hepatomegaly (Hepatotoxicity [9]) | HepSE_hepatitis (Hepatotoxicity [10]) | HepSE_cholelithiasis (Hepatotoxicity [11]) | HepSE_jaundice (Hepatotoxicity [12]) | HepSE_cholecystitis (Hepatotoxicity [13]) | HepSE_bilirubinemia (Hepatotoxicity [14]) | other results |
| --- | --- | --- | --- | --- | --- | --- | --- | --- | --- | --- | --- | --- | --- | --- | --- |
| NC12CC3CC(CC(C3)C1)C2 [AMANTADINE] | 0 | 0 | 0 | 0 | 0 | 0 | 0 | 0 | 0 | 0 | 0 | 0 | 0 | 0 | – |
| CC[N+](CC)(CCNC(=O)C(=O)NCC[N+](CC)(CC)Cc1ccccc1Cl)Cc1ccccc1Cl [AMBENONIUM] | 0 | 0 | 0 | 0 | 0 | 0 | 0 | 0 | 0 | 0 | 0 | 0 | 0 | 0 | – |
| COC(c1ccccc1)(c1ccccc1)[C@H](Oc1nc(C)cc(C)n1)C(=O)O [AMBRISENTAN] | 0 | 0 | 0 | 0 | 0 | 0 | 0 | 0 | 0 | 0 | 0 | 0 | 0 | 0 | – |
| CC(=O)OCC(=O)[C@@]12OC3(CCCC3)O[C@@H]1C[C@H]1[C@@H]3CCC4=CC(=O)C=C[C@]4(C)[C@@]3(F)[C@@H](O)C[C@@]12C [AMCINONIDE] | 0 | 0 | 0 | 0 | 0 | 0 | 0 | 0 | 0 | 0 | 0 | 0 | 0 | 0 | – |
| NCCCNCCSP(=O)(O)O [AMIFOSTINE] | – | – | – | – | – | – | – | – | – | – | – | – | – | – | HepSE_liver fatty (Hepatotoxicity [1]; Liver): 0; HepSE_hepatic necrosis (Hepatotoxicity [2]; Liver): 0; HepSE_cirrhosis (Hepatotoxicity [3]; Liver): 0; HepSE_elevated liver function tests (Hepatotoxicity [4]; Liver): 0; HepSE_liver function tests abnormal (Hepatotoxicity [5]; Liver): 0; HepSE_hepatic failure (Hepatotoxicity [6]; Liver): 0; HepSE_Combined Scores (Hepatotoxicity [7]; Liver): 0; HepSE_liver disease (Hepatotoxicity [8]; Liver): 0; HepSE_hepatomegaly (Hepatotoxicity [9]; Liver): 0; HepSE_hepatitis (Hepatotoxicity [10]; Liver): 0; HepSE_cholelithiasis (Hepatotoxicity [11]; Liver): 0; HepSE_jaundice (Hepatotoxicity [12]; Liver): 0; HepSE_cholecystitis (Hepatotoxicity [13]; Liver): 0; HepSE_bilirubinemia (Hepatotoxicity [14]; Liver): 0 |
| NCC[C@H](O)C(=O)N[C@@H]1C[C@H](N)[C@@H](O[C@H]2O[C@H](CN)[C@@H](O)[C@H](O)[C@H]2O)[C@H](O)[C@H]1O[C@H]1O[C@H](CO)[C@@H](O)[C@H](N)[C@H]1O [AMIKACIN] | 0 | 0 | 0 | 0 | 0 | 0 | 0 | 0 | 0 | 0 | 0 | 0 | 0 | 0 | – |
| N=C(N)NC(=O)c1nc(Cl)c(N)nc1N [AMILORIDE] | 0 | 0 | 0 | 0 | 0 | 0 | 2 | 1 | 0 | 0 | 0 | 1 | 0 | 0 | – |
| NCCCCCC(=O)O [AMINOCAPROIC ACID] | 0 | 0 | 0 | 0 | 0 | 0 | 0 | 0 | 0 | 0 | 0 | 0 | 0 | 0 | – |
| CCC1(c2ccc(N)cc2)CCC(=O)NC1=O (configuration not stated) [AMINOGLUTETHIMIDE] | 0 | 0 | 0 | 0 | 0 | 0 | 0 | 0 | 0 | 0 | 0 | 0 | 0 | 0 | – |
| Nc1ccc(C(=O)NCC(=O)O)cc1 [AMINOHIPPURIC ACID] | 0 | 0 | 0 | 0 | 0 | 0 | 0 | 0 | 0 | 0 | 0 | 0 | 0 | 0 | – |
| NCC(=O)CCC(=O)O [AMINOLEVULINIC ACID] | 0 | 0 | 0 | 0 | 0 | 0 | 0 | 0 | 0 | 0 | 0 | 0 | 0 | 0 | – |
| Cn1c(=O)c2[nH]cnc2n(C)c1=O.Cn1c(=O)c2[nH]cnc2n(C)c1=O.NCCN [AMINOPHYLLINE] | 0 | 0 | 0 | 0 | 0 | 0 | 0 | 0 | 0 | 0 | 0 | 0 | 0 | 0 | – |
| CN(C)CCC=C1c2ccccc2CCc2ccccc21 [AMITRIPTYLINE] | 0 | 0 | 0 | 0 | 0 | 1 | 3 | 0 | 0 | 1 | 0 | 1 | 0 | 0 | – |
